Common to all, as to assay type: biochemical
Assay [1] concerns the target T1, Actinoplanes missouriensis (DSM 43046) D-glucose isomerase (D-xylose isomerase, EC 5.3.1.5) EcoAmi(DSM) GI, wild type (WT-GI) (Actinoplanes missouriensis, UniProt P12851).
T1 construct: made in house; host or cells: E. coli K514
Briefly: Glucose isomerase catalytic parameters (D-sorbitol dehydrogenase coupled assay for D-xylose; cysteine-carbazole method for D-glucose). The method, then: (§1) The enzymatic activity of glucose isomerase was assayed as described below (1 unit of enzymatic activity produces 1.0 micromole of product -D-xylulose or D-fructose- per minute; therefore, specific activity -spa- is expressed as units per mg of GI enzyme).
(§2) In the D-Sorbitol Dehydrogenase Coupled Assay, enzymatic determination of D-xylulose was performed at 35°C as previously described (Kersters-Hilderson et al., 1987) in 50mM triethanolamine, pH 7.5, 10mM MgSO₄, and 0.1 M xylose, in the presence of ∼ 2 x 10⁻⁸ M D-sorbitol dehydrogenase (L-iditol : NAD oxidoreductase, EC 1.1.1.14), and 0.15mM NADH, except that the incubation buffer also included 1mM ethylenebis(oxyethylenenitrilo)tetraacetic acid (EGTA). Glucose isomerase final concentration in this assay was about 2.5 x 10⁻³ mg/ml, and precisely determined as described above.
(§3) With glucose as a substrate, GI activity can be assayed by measuring the amount of D-fructose produced during the isomerization reaction using the cysteine-carbazole method which is based on the reaction of ketosugars with carbazole in acids to yield a purple product (Dische and Borenfreund, 1951).

The target of assay [2] is T2, Actinoplanes missouriensis (DSM 43046) D-glucose isomerase EcoAmi(DSM) GI mutant K253R (Lys-253 to Arg) (Actinoplanes missouriensis, UniProt P12851, K253R).
T2 construct: made in house; host or cells: E. coli K514
The method, then: as §1, §2, §3

Assay [3] concerns the target T3, Actinoplanes missouriensis (DSM 43046) D-glucose isomerase EcoAmi(DSM) GI mutant K253Q (Lys-253 to Gln) (Actinoplanes missouriensis, UniProt P12851, K253Q).
T3 construct: made in house; host or cells: E. coli K514
As for the experimental part:
as §1, §2, §3

Where [4] appears, read: D-xylose as substrate, coupled assay, 35°C, 50mM triethanolamine pH 7.5, 10mM MgSO4.

T1 sequence (P12851 whole entry): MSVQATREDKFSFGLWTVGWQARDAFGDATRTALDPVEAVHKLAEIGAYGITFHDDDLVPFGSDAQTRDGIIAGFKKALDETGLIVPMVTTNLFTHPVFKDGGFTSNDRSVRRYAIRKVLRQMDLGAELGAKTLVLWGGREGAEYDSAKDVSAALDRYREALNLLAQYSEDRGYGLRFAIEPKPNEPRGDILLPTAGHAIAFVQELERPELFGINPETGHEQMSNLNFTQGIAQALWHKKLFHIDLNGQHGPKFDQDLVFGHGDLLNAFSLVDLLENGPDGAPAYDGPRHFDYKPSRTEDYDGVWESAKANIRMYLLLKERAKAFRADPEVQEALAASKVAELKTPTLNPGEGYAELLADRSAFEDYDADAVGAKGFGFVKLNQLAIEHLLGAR
T3 sequence (P12851 whole entry K253Q): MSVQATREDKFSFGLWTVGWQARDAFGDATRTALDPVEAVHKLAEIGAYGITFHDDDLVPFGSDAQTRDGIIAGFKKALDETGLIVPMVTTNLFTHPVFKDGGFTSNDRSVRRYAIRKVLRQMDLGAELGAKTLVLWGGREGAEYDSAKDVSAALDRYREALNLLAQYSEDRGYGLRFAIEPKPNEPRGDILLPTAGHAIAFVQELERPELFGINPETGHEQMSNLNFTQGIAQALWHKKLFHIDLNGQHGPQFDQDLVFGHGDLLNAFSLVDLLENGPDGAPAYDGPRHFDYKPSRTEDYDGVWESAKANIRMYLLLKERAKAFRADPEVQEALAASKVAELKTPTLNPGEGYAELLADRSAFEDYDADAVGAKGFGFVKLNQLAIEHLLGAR
T2 sequence (P12851 whole entry K253R): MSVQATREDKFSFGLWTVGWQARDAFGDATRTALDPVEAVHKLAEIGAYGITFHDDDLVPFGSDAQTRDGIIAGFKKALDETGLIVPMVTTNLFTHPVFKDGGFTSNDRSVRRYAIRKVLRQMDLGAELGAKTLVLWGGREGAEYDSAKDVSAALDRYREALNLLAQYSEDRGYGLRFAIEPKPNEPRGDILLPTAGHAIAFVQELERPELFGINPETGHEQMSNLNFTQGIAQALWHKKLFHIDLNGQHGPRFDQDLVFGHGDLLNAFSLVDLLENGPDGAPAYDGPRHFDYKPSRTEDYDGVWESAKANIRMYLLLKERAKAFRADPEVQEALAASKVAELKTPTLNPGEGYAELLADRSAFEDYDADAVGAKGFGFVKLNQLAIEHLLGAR

For the substance D-xylose, the Km was found to be 4.8 mM in assay [1] (setting [4]), 5.3 mM in assay [2] (setting [4]) and 4.4 mM in assay [3] (setting [4]). Moreover, the entries for the “Vmax (Xylose)” value in assay [1] (setting [4]), in assay [2] (setting [4]) and in assay [3] (setting [4]) were 24.2 units per mg of enzyme, 24.6 units per mg of enzyme and 15.1 units per mg of enzyme, respectively.

Take D-glucose: the entries for the “Vmax (Glucose)” value in assay [1] (D-glucose as substrate), in assay [2] (D-glucose as substrate) and in assay [3] (D-glucose as substrate) were 30.6 units per mg of enzyme, 27.2 units per mg of enzyme and 29.0 units per mg of enzyme, respectively.

The values above are taken from patent EP0355039A2, “Methods and means for controlling the stability of proteins” (priority 1988, dated 1990).
